The subject of one series is KHJJ tumor. Briefly: Organ distribution and tumor uptake of 111In-BLEDTA(B) in BALB/c mice with KHJJ tumor (Table II). Format: in vivo. As for the experimental part:
The two bleomycin analogs-BLEDTA(A) and (B)-were rapidly and specifically labelled with ^111 In^3.spsp.+. A small aliquot of a dilute solution (10^-4 M) of BLEDTA(A) and (B) respectively in 0.1 M citrate (pH 2.8) was added to a container of dry ^111 InCl3, and incubated for 5 minutes at room temperature. The solutions were then diluted with normal saline solution for injection.
Following the injection of ^111 In-BLEDTA(B) into the tail veins of specially prepared BALB/c mice, the organ distribution and tumor uptake of radioactivity were determined. A tumor line, "KHJJ", derived from a primary mammary carcinoma arising in a mouse and maintained for over 100 transplant generations was used for the assay. Transplantation was by subcutaneous implantation of tumor fragments about 1 mm in diameter into the flank. The studies were carried out after 14 days of growth, when the tumor had reached a size of about 1 cm^3. On histological examination,the tumor has a "carcinoma-like" pattern with a predominance of islands of round or polygonal malignant cells with little stroma and a generally undifferentiated appearance. After transplantation, the tumor takes in almost all animals and grows without metastasizing or killing the mice within 14 days.
[…] After 18 hours, each mouse was anesthetized with ether, and blood was collected from the jugular vein into two preweighed capillary tubes. The mouse then was killed instantly by cervical dislocation and the major organs excised. Samples of muscle, skin, bone (left femur plus marrow), tail, and tumor also were taken. All tissue samples were weighed immediately after excision and counted in a well-type scintillation counter.

In a further series the test system is VX2 adenocarcinomas. The series can be described thus: Tumor localization scans in rabbits bearing VX2 adenocarcinomas. The format is in vivo, white rabbits. The settings on record: for concentration of radioactivity in kidneys and bladder: two hours after injection. Here is the method:
Solutions of the indium-111 chelates of BLEDTA (A) or BLEDTA (B) were injected into the ear veins of white rabbits bearing type VX2 adenocarcinomas implanted under the right foreleg and the right hind leg. Two hours after injection, and again 18 to 24 hours after injection, the rabbits were scanned with a gamma camera, which provides a two-dimensionaldisplay of the distribution of radioactivity in the body. Scans were obtained 24 hours after injection of 700 μCi of ^111 In-BLEDTA(A).

[1] abbreviates: Table II, BLEDTA B 18 hours after tail vein injection.
Where [2] appears, read: 24 hours after injection of 700 μCi.

Consider two compounds from patent US4339426A, “Bleomycin analog” (Regents of the University of California, priority 1980, dated 1982).

As to `Cc1c(N)nc(C(CC(N)=O)NCC(N)C(N)=O)nc1C(=O)NC(C(=O)NC(C)C(O)C(C)C(=O)NC(C(=O)NCCc1nc(-c2nc(C(=O)NCCCSCC(=O)Nc3ccc(C(CN(CC(=O)O)CC(=O)O)N(CC(=O)O)CC(=O)O)cc3)cs2)cs1)C(C)O)C(OC1OC(CO)C(O)C(O)C1OC1OC(CO)C(O)C(OC(N)=O)C1O)c1cnc[nH]1` (stereo not drawn) [BLEDTA(B)], the “uptake of radioactivity in liver and bone” value in the series with KHJJ tumor (18 hours) is given as “quite low”. Besides, in the series with KHJJ tumor (setting [1]), the “Distribution and uptake: Blood” value is reported as “.205 ± .066 % of injected radioactivity pe”; the “Distribution and uptake: Bone” value is “.188 ± .080 % of injected radioactivity pe”; the “Distribution and uptake: Kidneys” value was 1.023 ± .333 % of injected radioactivity pe; the “Distribution and uptake: Liver” value is listed as “.263 ± .068 % of injected radioactivity pe”. In addition, in the series on KHJJ tumor (setting [1]), the “Distribution and uptake: Lungs” value is on record as “.254 ± .067 % of injected radioactivity pe”; the “Distribution and uptake: Muscle” value is on record as “.063 ± .015 % of injected radioactivity pe”; the “Distribution and uptake: Skin” value is “.166 ± .052 % of injected radioactivity pe”; the “Distribution and uptake: Spleen” value is reported as “.327 ± .088 % of injected radioactivity pe”. Further, the “Distribution and uptake: Tumor” value in the series on KHJJ tumor (Table II, KHJJ tumor, BLEDTA B 18 hours after tail vein injection) is reported as “.393 ± .015 % of injected radioactivity pe”. Moreover, in the series with KHJJ tumor (all organs examined except the kidneys), the “tumor/organ radioactivity concentration ratios” value is listed as “Favorable”. Further, the “concentration of radioactivity in kidneys and bladder” value in the series on VX2 adenocarcinomas was “high concentrations of radioactivity in the kidneys and bladder”.
As for `Cc1c(N)nc(C(CC(N)=O)NCC(N)C(N)=O)nc1C(=O)NC(C(=O)NC(C)C(O)C(C)C(=O)NC(C(=O)NCCc1nc(-c2nc(C(=O)NCCC[S+](C)CC(=O)Nc3ccc(C(CN(CC(=O)O)CC(=O)O)N(CC(=O)O)CC(=O)O)cc3)cs2)cs1)C(C)O)C(OC1OC(CO)C(O)C(O)C1OC1OC(CO)C(O)C(OC(N)=O)C1O)c1cnc[nH]1` (stereo not drawn) [BLEDTA(A)], in the series with VX2 adenocarcinomas (setting [2]), the “visualization of small tumor 1 cm in diameter under right foreleg” value is “clearly visualized” and the “visualization of tumor 2 to 3 cm in diameter under right hind leg” value was “strikingly evident”. Also, the “concentration of radioactivity in kidneys and bladder” value in the series on VX2 adenocarcinomas was “high concentrations of radioactivity in the kidneys and bladder”.
